From patent publication US20260365653A1, “IRREVERSIBLE MUTEGFR INHIBITORS” (Bayer Aktiengesellschaft, priority 2022, published 2026)

Legend:
[1] = molecular target: T1, mutEGFR (D770_N771insNPG, T790) (Homo sapiens, UniProt P00533, INS770NPG/T790M); assay: mutEGFR (D770_N771insNPG, T790) kinase assay; type: biochemical; details: Table 2a, D770_N771insNPG
T1 construct: exact insNPG construct not described; in-house EGFR proteins were N-terminal GST fusions from baculovirus/insect cells (borders R669-A1210 given only for WT, insSVD, insASV)
From the text: The different EGFR proteins used in the biochemical kinase activity inhibition assays were generated inhouse by expression in insect cells using Baculo Virus system and subsequent purification as described in the following paragraphs.
The cDNAs encoding the various protein sequences from human EGFR human (P00533) were optimized for expression in eukaryotic cells and synthesized by the GeneArt Technology at Life Technologies.

[2] = molecular target: T2, mutEGFR (D770_N771insSVD) (Homo sapiens, UniProt P00533, DUP768-770); assay: Exon20-Mutant-EGFR (D770_N771insSVD) kinase assay (TR-FRET); type: biochemical; details: mutEGFR (D770_N771insSVD) kinase assay IC50, Table 2a; D770_N771insSVD; 2 mM ATP
T2 construct: GST-EGFR #3 (SVD between D770 and N771); made in house; host or cells: Sf9 insect cells (baculovirus)

[3] = system: BA/F3 (insSVD) cells; assay: Ba/F3-EGFR-insSVD cell survival assay (Cell Titer-Glo); type: cell-based; details: Mus musculus, BaF3, 48 h, Table 3a, cell survival, Cell Titer-Glo, with 10 ng/ml EGF, without IL-3
In short: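 Ba/F3 cells stably expressing retroviral EGFR-insSVD or insSVD T790M, grown without IL-3 on 10 ng/ml EGF, 4000 cells/well. Compound pinned in, 48 h at 37° C. Viability by CellTiter-Glo luminescence.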

T2 sequence (P00533 with tags, fused parts or gaps DUP768-770): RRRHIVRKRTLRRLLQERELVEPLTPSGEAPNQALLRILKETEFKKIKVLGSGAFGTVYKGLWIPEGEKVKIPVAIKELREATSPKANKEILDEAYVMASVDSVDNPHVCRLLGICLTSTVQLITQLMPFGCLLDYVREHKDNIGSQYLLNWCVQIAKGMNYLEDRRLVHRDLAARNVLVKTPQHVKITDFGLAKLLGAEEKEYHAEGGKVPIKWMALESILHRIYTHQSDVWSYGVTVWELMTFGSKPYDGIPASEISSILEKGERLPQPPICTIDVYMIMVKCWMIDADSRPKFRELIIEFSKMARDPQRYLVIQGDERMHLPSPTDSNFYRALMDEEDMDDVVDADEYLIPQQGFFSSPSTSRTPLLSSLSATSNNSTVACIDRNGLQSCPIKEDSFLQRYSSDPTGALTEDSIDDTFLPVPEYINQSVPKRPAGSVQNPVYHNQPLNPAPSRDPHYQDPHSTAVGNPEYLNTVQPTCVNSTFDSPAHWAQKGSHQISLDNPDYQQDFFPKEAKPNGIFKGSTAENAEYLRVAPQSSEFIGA
T1 sequence (P00533 with tags, fused parts or gaps INS770NPG/T790M limits assumed): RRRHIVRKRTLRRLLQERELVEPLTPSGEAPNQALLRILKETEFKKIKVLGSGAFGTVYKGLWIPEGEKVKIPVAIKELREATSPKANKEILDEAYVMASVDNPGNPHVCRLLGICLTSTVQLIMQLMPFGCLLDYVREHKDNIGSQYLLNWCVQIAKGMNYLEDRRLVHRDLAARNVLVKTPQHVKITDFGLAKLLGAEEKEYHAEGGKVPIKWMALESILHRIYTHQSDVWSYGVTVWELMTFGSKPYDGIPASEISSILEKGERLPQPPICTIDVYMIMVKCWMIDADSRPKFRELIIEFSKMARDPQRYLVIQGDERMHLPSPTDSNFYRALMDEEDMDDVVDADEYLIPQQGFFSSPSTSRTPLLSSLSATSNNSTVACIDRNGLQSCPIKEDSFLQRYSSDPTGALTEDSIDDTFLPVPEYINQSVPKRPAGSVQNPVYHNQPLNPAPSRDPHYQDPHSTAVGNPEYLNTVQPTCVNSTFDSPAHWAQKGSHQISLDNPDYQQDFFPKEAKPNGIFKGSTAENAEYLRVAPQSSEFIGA

| Compound | IC50 [1] | IC50 [2] | IC50 [3] |
| --- | --- | --- | --- |
| C=CC(=O)N1CCn2nc(-c3ccc(OC)cc3)c(-c3ccnc4[nH]cc(C)c34)c2C1 [Example 47, 1-[2-(4-methoxyphenyl)-3-(3-methyl-1H-pyrrolo[2,3-b]pyridin-4-yl)-6,7-dihydropyrazolo[1,5-a]pyrazin-5(4H)-yl]prop-2-en-1-one] | 666 nM | 864 nM | 231 nM |
| C=CC(=O)N1CCn2nc(-c3ccc(C(F)(F)F)cc3)c(-c3ccnc4[nH]cc(C)c34)c2C1 [Example 48, 1-[3-(3-methyl-1H-pyrrolo[2,3-b]pyridin-4-yl)-2-[4-(trifluoromethyl)phenyl]-6,7-dihydropyrazolo[1,5-a]pyrazin-5(4H)-yl]prop-2-en-1-one] | 1270 nM | 242 nM | 90.5 nM |
| C=CC(=O)N1CCn2nc(-c3ccc(Cl)cc3F)c(-c3ccnc4[nH]cc(C)c34)c2C1 [Example 49, 1-[2-(4-chloro-2-fluorophenyl)-3-(3-methyl-1H-pyrrolo[2,3-b]pyridin-4-yl)-6,7-dihydropyrazolo[1,5-a]pyrazin-5(4H)-yl]prop-2-en-1-one] | 121 nM | 112 nM | 71.7 nM |
| C=CC(=O)N1CCn2nc(-c3ccc(Cl)cc3F)c(-c3ccncc3C)c2C1 [Example 50, 1-[2-(4-chloro-2-fluorophenyl)-3-(3-methylpyridin-4-yl)-6,7-dihydropyrazolo[1,5-a]pyrazin-5(4H)-yl]prop-2-en-1-one] | 135 nM | 8.5 nM | 156 nM |
| C=CC(=O)N1CCn2nc(-c3ccc(Cl)cc3F)c(-c3c(F)cnc4[nH]ccc34)c2C1 [Example 51, 1-[2-(4-chloro-2-fluorophenyl)-3-(5-fluoro-1H-pyrrolo[2,3-b]pyridin-4-yl)-6,7-dihydropyrazolo[1,5-a]pyrazin-5(4H)-yl]prop-2-en-1-one] | 25.7 nM | 6.64 nM | 54.7 nM |
| C=CC(=O)N1CCn2nc(-c3ccc(Cl)cc3F)c(-c3ccnc4[nH]cc(F)c34)c2C1 [Example 52, 1-[2-(4-chloro-2-fluorophenyl)-3-(3-fluoro-1H-pyrolo[2,3-b]pyridin-4-yl)-6,7-dihydropyrazolo[1,5-a]pyrazin-5(4H)-yl]prop-2-en-1-one] | 22.7 nM | 6.05 nM | 35.5 nM |
| C=CC(=O)N1CCn2nc(-c3ccc(Cl)cc3F)c(-c3ccnc(NC)c3)c2C1 [Example 53, 1-[2-(4-chloro-2-fluorophenyl)-3-[2-(methylamino)pyridin-4-yl]-6,7-dihydropyrazolo[1,5-a]pyrazin-5(4H)-yl]prop-2-en-1-one] | 7.05 nM | 0.997 nM | 44.2 nM |
| C=CC(=O)N1CCn2nc(-c3ccc(C(F)(F)F)cc3)c(-c3ccnc4[nH]c(C)cc34)c2C1 [Example 54, 1-[3-(2-methyl-1H-pyrrolo[2,3-b]pyridin-4-yl)-2-[4-(trifluoromethyl)phenyl]-6,7-dihydropyrazolo[1,5-a]pyrazin-5(4H)-yl]prop-2-en-1-one] | 3470 nM | 89 nM | 498 nM |
| C=CC(=O)N1CCn2nc(-c3ccc(C(F)(F)F)cc3)c(-c3ccncc3C3CC3)c2C1 [Example 55, 1-[3-(3-cyclopropylpyridin-4-yl)-2-[4-(trifluoromethyl)phenyl]-6,7-dihydropyrazolo[1,5-a]pyrazin-5(4H)-yl]prop-2-en-1-one] | 2540 nM | 350 nM | 744 nM |
| C=CC(=O)N1CCn2nc(-c3ccc(C(F)(F)F)cc3)c(-c3ccnc4[nH]c(C)c(C)c34)c2C1 [Example 56, 1-[3-(2,3-dimethyl-1H-pyrrolo[2,3-b]pyridin-4-yl)-2-[4-(trifluoromethyl)phenyl]-6,7-dihydropyrazolo[1,5-a]pyrazin-5(4H)-yl]prop-2-en-1-one] | 670 nM | 281 nM | 124 nM |
| Cc1c[nH]c2nccc(-c3c(-c4ccc(Cl)cc4F)nn4c3CN(C(=O)/C=C/CN(C)C)CC4)c12 [Example 57, (2E)-1-[2-(4-chloro-2-fluorophenyl)-3-(3-methyl-1H-pyrrolo[2,3-b]pyridin-4-yl)-6,7-dihydropyrazolo[1,5-a]pyrazin-5(4H)-yl]-4-(dimethylamino)but-2-en-1-one] | 256 nM | 165 nM | 85.7 nM |
| Cc1c[nH]c2nccc(-c3c(-c4ccc(C(F)(F)F)cc4)nn4c3CN(C(=O)/C=C/CN(C)C)CC4)c12 [Example 58, (2E)-4-(dimethylamino)-1-[3-(3-methyl-1H-pyrrolo[2,3-b]pyridin-4-yl)-2-[4-(trifluoromethyl)phenyl]-6,7-dihydropyrazolo[1,5-a]pyrazin-5(4H)-yl]but-2-en-1-one] | 1300 nM | 446 nM | 138 nM |
| COc1ccc(-c2nn3c(c2-c2ccnc4[nH]cc(C)c24)CN(C(=O)/C=C/CN(C)C)CC3)cc1F [Example 59, (2E)-4-(dimethylamino)-1-[2-(3-fluoro-4-methoxyphenyl)-3-(3-methyl-1H-pyrrolo[2,3-b]pyridin-4-yl)-6,7-dihydropyrazolo[1,5-a]pyrazin-5(4H)-yl]but-2-en-1-one] | 956 nM | 813 nM | 488 nM |
| COc1ccc(-c2nn3c(c2-c2ccnc4[nH]cc(C)c24)CN(C(=O)/C=C/CN(C)C)CC3)cc1 [Example 60, (2E)-4-(dimethylamino)-1-[2-(4-methoxyphenyl)-3-(3-methyl-1H-pyrrolo[2,3-b]pyridin-4-yl)-6,7-dihydropyrazolo[1,5-a]pyrazin-5(4H)-yl]but-2-en-1-one] | 1410 nM | 939 nM | 647 nM |
| Cc1c[nH]c2nccc(-c3c(-c4cccc(C#N)c4)nn4c3CN(C(=O)/C=C/CN(C)C)CC4)c12 [Example 61, 3-{5-[(2E)-4-(dimethylamino)but-2-enoyl]-3-(3-methyl-1H-pyrrolo[2,3-b]pyridin-4-yl)-4,5,6,7-tetrahydropyrazolo[1,5-a]pyrazin-2-yl}benzonitrile] | 398 nM | 2380 nM | 922 nM |
| C=C(CN(C)C)C(=O)N1CCn2nc(-c3ccc(F)cc3)c(-c3ccncc3)c2C1 [Example 62, 2-[(dimethylamino)methyl]-1-[2-(4-fluorophenyl)-3-(pyridin-4-yl)-6,7-dihydropyrazolo[1,5-a]pyrazin-5(4H)-yl]prop-2-en-1-one] | 87.6 nM | 29.5 nM | 390 nM |
| O=C(/C=C/CN1CCOCC1)N1CCn2nc(-c3ccc(F)cc3)c(-c3ccncc3)c2C1 [Example 63, (2E)-1-[2-(4-fluorophenyl)-3-(pyridin-4-yl)-6,7-dihydropyrazolo[1,5-a]pyrazin-5(4H)-yl]-4-(morpholin-4-yl) but-2-en-1-one] | 9 nM | 2.64 nM | 221 nM |
| C=C(CN1CCOCC1)C(=O)N1CCn2nc(-c3ccc(F)cc3)c(-c3ccncc3)c2C1 [Example 64, 1-[2-(4-fluorophenyl)-3-(pyridin-4-yl)-6,7-dihydropyrazolo[1,5-a]pyrazin-5(4H)-yl]-2-[(morpholin-4-yl)methyl]prop-2-en-1-one] | 698 nM | 268 nM | 5050 nM |
| COC/C=C/C(=O)N1CCn2nc(-c3ccc(F)cc3)c(-c3ccncc3)c2C1 [Example 66, (2E)-1-[2-(4-fluorophenyl)-3-(pyridin-4-yl)-6,7-dihydropyrazolo[1,5-a]pyrazin-5(4H)-yl]-4-methoxybut-2-en-1-one] | 222 nM | 87.2 nM | 1750 nM |
| O=C(/C=C/C(F)(F)F)N1CCn2nc(-c3ccc(F)cc3)c(-c3ccncc3)c2C1 [Example 67, (2E)-4,4,4-trifluoro-1-[2-(4-fluorophenyl)-3-(pyridin-4-yl)-6,7-dihydropyrazolo[1,5-a]pyrazin-5(4H)-yl]but-2-en-1-one] | 3.3 nM | 1.22 nM | 83.4 nM |
| O=C(C#CCN1CCOCC1)N1CCn2nc(-c3ccc(F)cc3)c(-c3ccncc3)c2C1 [Example 68, 1-[2-(4-fluorophenyl)-3-(pyridin-4-yl)-6,7-dihydropyrazolo[1,5-a]pyrazin-5(4H)-yl]-4-(morpholin-4-yl) but-2-yn-1-one] | 11.9 nM | 5.33 nM | 60.2 nM |
| CCN(CC)C/C=C/C(=O)N1CCn2nc(-c3ccc(F)cc3)c(-c3ccncc3)c2C1 [Example 69, (2E)-4-(diethylamino)-1-[2-(4-fluorophenyl)-3-(pyridin-4-yl)-6,7-dihydropyrazolo[1,5-a]pyrazin-5(4H)-yl]but-2-en-1-one] | 4.78 nM | 1.73 nM | 194 nM |
| O=C(/C=C/CO)N1CCn2nc(-c3ccc(F)cc3)c(-c3ccncc3)c2C1 [Example 70, (2E)-1-[2-(4-fluorophenyl)-3-(pyridin-4-yl)-6,7-dihydropyrazolo[1,5-a]pyrazin-5(4H)-yl]-4-hydroxybut-2-en-1-one] | 90.2 nM | 26.1 nM | 862 nM |
| CCN(C)C/C=C/C(=O)N1CCn2nc(-c3ccc(F)cc3)c(-c3ccncc3)c2C1 [Example 71, (2E)-4-[ethyl(methyl)amino]-1-[2-(4-fluorophenyl)-3-(pyridin-4-yl)-6,7-dihydropyrazolo[1,5-a]pyrazin-5(4H)-yl]but-2-en-1-one] | 3.09 nM | 0.907 nM | 120 nM |
